This note sets out measurements from PubChem BioAssay (NCI).

Common to all, as to assay: NCI tumour cell line growth inhibition, 48 h
The test system of assay [1] is DMS 114 small cell lung.
Assay [2] has as its system HOP-18 NSCLC.
The test system of assay [3] is M19-MEL melanoma.
The test system of assay [4] is XF 498 CNS.
In assay [5] the test system is RXF-631 renal.
The subject of assay [6] is KM20L2 colon.
The subject of assay [7] is LXFL 529 NSCLC.
In assay [8] the test system is MDA-N.
Assay [9] concerns DLD-1 colon.
Assay [10] deals with SN12K1 renal.
Assay [11] deals with P388 leukemia.

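In this assay, cells in 96-well plates receive the compound at five concentrations for 48 hours. Endpoints are linearly interpolated between the surrounding concentrations. GI50 is the concentration that inhibits growth by half. The concentration for full growth arrest is given as TGI.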

As to `O/N=C1/C(=C/c2ccccc2)CCCC1C(NO)c1ccccc1` (configuration not stated), the TGI in assay [1] is > 100 µM; in assay [2] it was > 100 µM; in assay [3], > 100 µM; in assay [4], 99.2 µM; in assay [5] it was > 100 µM; in assay [6], > 100 µM. Also, in assay [7], the TGI was > 100 µM.

Take `O=C1c2c(O)cccc2C(C(=O)CCCC(=O)C2c3cccc(O)c3C(=O)c3c(O)cccc32)c2cccc(O)c21`: the TGI worked out at 0.502 µM in assay [1]; 0.828 µM in assay [2]; 4.17 µM in assay [3]; 3.39 µM in [8]; 0.226 µM in assay [4]; 3.99 µM in assay [5]. Besides, the TGI worked out at 7 µM in assay [9], 8.68 µM in [6] and 0.48 µM in assay [7].

In turn, `CN1CCN(c2ccc([N+](=O)[O-])c3no[n+]([O-])c23)CC1` came in with a TGI in assay [8] of 2.74 µM.

`CC(C)c1ccc(O)c(O)c(=O)c1` (tested in a mixture with another compound): in assay [8], the TGI is > 100 µM.

Compound `NC(N)=N/N=C(/c1ccccc1)c1ccc(O)cc1O` returned a TGI in assay [8] of 28.6 µM.

In the case of `C[n+]1ccc2[nH]c3ccccc3c2c1`, the TGI in assay [2], in assay [3], in assay [9], in assay [6] and in [7] was > 100 µM in each case.

On to `Oc1oc(-c2ccccc2)nc1/C=C1/C=NN=N1`, for which, in [8], the TGI is > 100 µM.

As to `CC(C)[C@H](O)C(=O)N[C@H]1Cc2ccc3c(c2)[C@]24C5=C(N=C(O5)[C@H](C(C)C)NC1=O)c1nc(Cl)c(o1)-c1c(Cl)[nH]c5cccc(c15)-c1cccc2c1N[C@H]4O3`, the TGI in [8] turned out to be 0.00429 µM.

For `CN(/C(=N\O)c1ccccc1)c1ccccc1`, the TGI in [1] is 86.1 µM; in [3] it was > 100 µM; in assay [9], > 100 µM; in assay [6], 41.5 µM; in assay [7] it was > 100 µM.

`C=C(C)C(=O)N1c2ccc(OC)cc2CC1C(=O)OCC` (configuration not stated): the TGI in [8] was > 100 µM.

In the case of `N=C(N)Cn1cnc2ccccc21`, the TGI in [1], in [2], in assay [3], in assay [6] and in assay [7] was > 100 µM each time.

In the case of `Cc1cccc2cc3ccc4ccccc4c3cc12`, the TGI in assay [8] was > 100 µM.

For `CN(C(=O)C1CC1)C1C2CN3CCC(O2)C13` (configuration not stated), the TGI in assay [1], in assay [2], in assay [3], in assay [9], in assay [6] and in assay [7] was > 100 µM throughout.

`CCC[CH2][Sn]1([CH2]CCC)[O]CC([CH2][Sn]([c]2ccccc2)([c]2ccccc2)[c]2ccccc2)[O]1` (configuration not stated): the GI50 was 3.18 µM in assay [1]; 12.7 µM in assay [2]; 8.82 µM in assay [3]; 15.3 µM in [4]; 10.7 µM in [5]; 5.92 µM in assay [9]. For the same compound, the TGI in assay [1] was 13.5 µM; in assay [2] it was 25.2 µM; in assay [3], 21.2 µM; in assay [4], 28.6 µM; in [5] it was 30.5 µM; in assay [9] it was 18.4 µM.

In the case of `COc1ccc(CC(C#N)c2cc(OC)c(OC)c(OC)c2)cc1` (configuration not stated), the TGI was > 100 µM in assay [3]; 28.6 µM in assay [4]; > 100 µM in assay [9]; 0.195 µM in assay [6]; > 100 µM in assay [7].

As for `COC(=O)c1cccc2c1Oc1ccccc1S2`, in [8], the TGI was > 100 µM.

For the compound `CC(=O)[CH-]C(=O)c1ccccc1.CC(=O)[CH-]C(=O)c1ccccc1.CC[O-].O=C1C=C([O-])C(=O)c2ccccc21.[Ti+4]`, the GI50 was 95.4 µM in [2], > 100 µM in assay [9], 42.4 µM in assay [6] and 48.8 µM in assay [7]. For the same compound, the TGI in [2], in assay [9], in assay [6] and in [7] was > 100 µM in each case.

For the compound `CCCCCC/C=C/CCCCCCCc1cccc(O)c1C(=O)O`, the TGI in assay [1], in assay [2], in assay [3], in [4], in [5] and in assay [9] was > 100 µM in each case. Moreover, the TGI in assay [6] and in assay [7] was > 100 µM each time.

Consider `NC(=O)N/N=C1/CCCC/C1=C\c1ccccc1`, for which the TGI in assay [1], in [2], in [3], in assay [5], in [9] and in assay [6] was > 100 µM throughout. For the same compound, the TGI in assay [7] was > 100 µM.

Take `Cn1c(=O)c2[nH]cnc2n(CC(=O)O)c1=O`: the TGI in [1], in assay [3], in assay [4], in [5], in assay [9] and in assay [6] was > 100 µM each time. The TGI in [7] was > 100 µM.

Consider `CC(=O)NNc1nc(C)c(C(/C=C/c2ccc(Cl)cc2)=N/NC(=S)NN)s1`, for which the TGI in assay [1], in assay [2], in assay [3], in assay [4], in assay [5] and in assay [9] was > 100 µM in each case. Also, the TGI in assay [6] and in [7] was > 100 µM each time.

`CCCCCCCCCCCCOC(=S)NC`: the TGI in [1] turned out to be 37.5 µM; in assay [2], 50.1 µM; in assay [4] it was 35.7 µM; in assay [9], 34.3 µM; in assay [6] it was 33.9 µM; in [7], 31.4 µM.

In the case of `c1cc(C2N3CCCN2CC3)ccn1` (configuration not stated), the TGI in [8] is > 100 µM.

Regarding `CCN1CCC(O)(c2ccc(Cl)c(Cl)c2)C(C(=O)c2ccc(Cl)c(Cl)c2)C1` (configuration not stated), the TGI came out at 33.9 µM in assay [1]; 34.4 µM in [4]; 33 µM in assay [9]; 36.6 µM in assay [6]; 30.1 µM in assay [7].

In the case of `COc1cc(CCC(=O)NS(=O)(=O)c2ccccc2)cc(OC)c1OC`, the TGI in [1], in assay [2], in [4], in [9], in assay [6] and in [7] was > 100 µM each time.

Take `c1ccc([P+](CCC[P+](c2ccccc2)(c2ccccc2)c2ccccc2)(c2ccccc2)c2ccccc2)cc1`: the TGI in assay [1] is 71 µM; in assay [2], > 100 µM; in assay [3], > 100 µM; in [4], 77.9 µM; in assay [5], > 100 µM; in [9], > 100 µM. Besides, the TGI in assay [6] and in assay [7] was > 100 µM each time.

In the case of `CC(=O)OC1C/C(C)=C/[C@H](O)CC(C)/C=C/[C@@]2(C)CCC(C(C)(C)O)C12` (some centres not stated), the TGI in assay [1], in [2], in [3], in [4], in [5] and in assay [9] was > 100 µM throughout. Moreover, the TGI in assay [6] and in [7] was > 100 µM each time.

Turning to `COc1ccc(NCc2c(O)ccc3ccccc23)cc1`, the TGI in assay [8] is > 100 µM.

`COC(=O)C(C(=O)C(=O)Nc1ccc(C)cc1C)c1nc2ccc([N+](=O)[O-])cc2[nH]c1=O` (configuration not stated): the TGI in assay [1], in assay [2], in assay [3], in assay [4], in [5] and in assay [9] was > 100 µM throughout. Also, the TGI in assay [6] and in assay [7] was > 100 µM throughout.

In the case of `COC(=O)NN=C1C(C)(C)C(=NNC(=O)OC)C1(C)C`, the TGI in assay [1] is > 56.7 µM; in assay [2] it was > 100 µM; in assay [3], > 63.3 µM; in assay [4], > 100 µM; in [5], > 100 µM; in assay [9], > 100 µM. Besides, the TGI in assay [6] and in [7] was > 100 µM each time.

Compound `CCCCCC/C=C\CCCCCCCCCc1c(O)c(OC)cc(O)c1CN(C)C` displayed a TGI in assay [8] of 32.2 µM.

Take `CCC(C)c1cnc(CC(C)C)c(=O)[nH]1` (configuration not stated): the TGI in assay [8] is > 100 µM.

For `C=CC1=C(C)C(Cc2[nH]c(/C=c3\[nH]/c(=C/C4=NC(=O)C(C)/C4=C\C)c(C)c3CCC(=O)O)c(CCC(=O)OC)c2C)NC1=O` (configuration not stated), in [8], the GI50 was 25.6 µM and the TGI turned out to be 66.7 µM.

`CCCCc1oc2ccccc2c1C(=O)c1cc(I)c(OCCN(CC)CC)c(I)c1`: the TGI in [2] is 1.29 µM; in [10], 7.45 µM; in [4], 8.25 µM; in assay [9], 54.1 µM; in assay [11] it was 11.2 µM.

Take `Nc1n[n+]([O-])c2cnccc2[n+]1[O-]`: the TGI in assay [8] came out at 36.6 µM.

As for `CC(C)(C)[Si](Nc1ccccc1)(c1ccccc1)c1ccccc1`, the TGI was found to be 26.3 µM in assay [1]; 26.7 µM in assay [2]; 28.4 µM in assay [3]; 27.8 µM in assay [4]; 29.6 µM in assay [5]; 31.7 µM in assay [6].

On to `CCCCCCCCCCCCCCCCCCOCC1(COP(=O)([O-])OCC[N+](C)(C)C)CCCO1` (configuration not stated), for which the TGI is 18.1 µM in assay [1]; 10.9 µM in [2]; 10.8 µM in [3]; 20.5 µM in [4]; 12.5 µM in assay [9]; 11.9 µM in assay [6]. Besides, the TGI in assay [7] was 16.6 µM.

`NC(=O)C12CCC1C1CCCCC12N1CCOCC1` (configuration not stated): the TGI in [2], in [3], in assay [5], in assay [9], in [6] and in assay [7] was > 100 µM each time.

`C=C(C)C1CCC2(CO)C(O)CC3(C)C(CCC4C5(C)CCC(O)C(C)(C)C5CCC43C)C12` (configuration not stated): the TGI in assay [8] was > 100 µM.

With `O=C(O)CCc1nc(-c2ccccc2)c(-c2ccccc2)o1`, the TGI in assay [8] was > 100 µM.

With `CCOC(CN(C)C(=O)OCC(Cl)(Cl)Cl)OCC`, the TGI in [8] was > 100 µM.

Consider `O=C(Cc1nc2ccccc2s1)C(=O)Nc1ccc(Cl)cc1Cl`, for which the TGI in assay [3], in assay [4], in assay [5], in assay [9], in assay [6] and in [7] was > 100 µM throughout.

With `CC(=O)Oc1cc(OC(C)=O)c2cc3c(cc2c1OC(C)=O)C(=O)C1(CCCC1)C3=O`, the TGI was 31.6 µM in assay [1]; 38.5 µM in assay [2]; 32 µM in assay [3]; 30 µM in assay [4]; 37 µM in [9]; 46.3 µM in assay [6].

`C/C(CC(=O)Nc1ccc(NC(=O)/C(C)=N/NS(=O)(=O)c2ccc(C)cc2)cc1)=N\NS(=O)(=O)c1ccc(C)cc1`: the TGI in assay [1], in [3], in assay [9], in assay [6] and in assay [7] was > 100 µM throughout.

Regarding `N#CNc1nc(C(=O)Nc2ccc(Cl)cc2)cc(-c2ccccc2)n1`, the TGI in [1], in [2], in [3], in assay [4], in assay [5] and in assay [9] was > 100 µM throughout. For the same compound, the TGI in assay [6] and in [7] was > 100 µM throughout.

`O/N=C1/C(=C/c2ccc(Cl)cc2)CCCC1C(NO)c1ccc(Cl)cc1` (configuration not stated): the TGI was 81.8 µM in [1]; 55.1 µM in assay [2]; 54.7 µM in assay [3]; 60.1 µM in [4]; 41 µM in [5]; > 100 µM in assay [9]. Moreover, the values for the TGI in assay [6] and in [7] were 36.6 µM and > 100 µM, respectively.

Take `O=C(Nc1ccccc1)OCc1nc2c([nH]1)C(=O)C=CC2=O`: the TGI in assay [2] was 23 µM; in [3], 29.5 µM; in assay [4], 30.9 µM; in [9], > 100 µM; in assay [6], 41 µM; in assay [7], 11.1 µM.
